# In patent US8802664B2 (Bioproject, priority 2010, dated 2014):
# Molecular target: T1, human H4 receptor (Homo sapiens, UniProt Q9H3N8)
# T1 construct: expressed in transfected cells
# Test: [3H]Histamine binding on membranes of CHO cells stably expressing human H4 receptor
# Description: CHO cells stably expressing human H4 receptor were grown until sub-confluence and centrifuged at 300 g 15 minutes at 4° C. Pellets were resuspended in buffer I Tris-HCl 50 mM, MgCl2 10 mM, NaCl 140 mM, pH=7.4 supplemented by a 1/50 dilution of a mix of protease inhibitors. The obtained suspension is stirred gently and submitted to a […] exerted through a syringe. The cell lysate is then centrifuged at 300 g 15 minutes at 4° C. in order to eliminate nucleus and cell scraps. The obtained supernatant was then centrifuged at 48000 g for 30 minutes at 4° C. The final pellet is resuspended in buffer I with a potter homogenizer. Aliquots were frozen in liquid nitrogen and stored until use at −80° C. Protein content is measured by the Bradford method.
# Defreezed membranes were diluted at a final concentration of 20 μg/180 μL/well in a binding buffer containing 50 mM Tris/HCl, 0.5 mM EDTA, pH=7.4 and distributed in 96 well polystyrene microplate. [^3H] […] Non specific binding was estimated in the presence of 10 μM BP1.2404 (JNJ 7777120). The reaction was terminated by filtration through GF/B filters pre-soaked 2 hours at 4° C. in […]. Filters were rinsed 3 times with 250 μl of ice cold incubation binding buffer.
# The filter-bound radioactivity was measured in a liquid scintillation counter Microbeta TRILUX® with 50 μl of scintillation fluid.
# The hH4 binding investigated by use of [^3H]
row,Structure (SMILES),Ki or IC50 activity class [nM]
1,"CN1CCC(OC(c2cccc(SCCN)c2)c2nc3ccccc3[nH]2)CC1 (stereo not shown) [Example 249, 2-{3-[(1H-benzimidazol-2-yl)(1-methylpiperidin-4-yloxy)methyl]phenylsulfanyl}ethylamine]",< 300
2,"CN1CCC(OC(c2ccc(Cl)cc2)c2nc3ccccc3[nH]2)CC1 (stereo not shown) [Example 226, 2-[(4-chlorophenyl)(1-methylpiperidin-4-yloxy)methyl]-1H-benzimidazole]",< 300
3,"CN1CCC(OC(c2cccc(C#CCCCCN)c2)c2nc3cc(F)ccc3[nH]2)CC1 (stereo not shown) [Example 439, 6-{3-[(5-fluoro-1H-benzimidazol-2-yl)(1-methylpiperidin-4-yloxy)methyl]phenyl}hex-5-ynylamine]",< 30
4,CN1CCC(OC(c2cccc(C=CCNC(=N)N)c2)c2nc3ccccc3[nH]2)CC1 (stereo not shown) [Example 499],< 30
5,"CN1CCC(OC(c2cccc(SCCO)c2)c2nc3ccccc3[nH]2)CC1 (stereo not shown) [Example 157, 2-{3-[(1H-benzimidazol-2-yl)(1-methylpiperidin-4-yloxy)methyl]phenylsulfanyl}ethanol]",< 300
6,"CN1CCC(OC(c2cccc(OCCCCN3CCOCC3)c2)c2nc3ccccc3s2)CC1 (stereo not shown) [Example 322, 2-{(1-methylpiperidin-4-yloxy)[3-(4-morpholin-4-yl-butoxy)phenyl]methyl}benzothiazole]",< 1000
7,"CN1CCC(NC(c2cccc(OCc3cc(F)ccc3F)c2)c2nc3ccccc3[nH]2)CC1 (stereo not shown) [Example 149, {(1H-benzimidazol-2-yl)[3-(2,5-difluoro-benzyloxy)phenyl]methyl}(1-methylpiperidin-4-yl)amine]",< 30
8,"CN1CCC(OC(c2cccc(C3=CCN(C(=N)N)CC3)c2)c2nc3ccccc3[nH]2)CC1 (stereo not shown) [Example 353, 4-{3-[(1H-benzimidazol-2-yl)(1-methylpiperidin-4-yloxy)methyl]phenyl}-3,6-dihydro-2H-pyridine-1-carboxamidine]",< 300
9,"CN1CCC(OC(c2nc3ccccc3o2)c2cc(OC(F)(F)F)ccc2F)CC1 (stereo not shown) [Example 525, 2-[(2-fluoro-5-trifluoromethoxyphenyl)(1-methylpiperidin-4-yloxy)methyl]benzoxazole]",< 300
10,CN1CCC(OC(c2nc3ccccc3s2)c2c(F)cc(Cl)cc2F)CC1 (stereo not shown) [Example 532],< 300
11,CN1CCC(OC(c2cccc(SCCCF)c2)c2nc3ccccc3[nH]2)CC1 (stereo not shown) [Example 508],< 30
12,COCCn1c(C(OC2CCN(C)CC2)c2cccc(C#CCCCCN)c2)nc2ccccc21 (stereo not shown) [Example 501],< 300
13,CCOC(=O)n1c(C(OC2CCN(C)CC2)c2cc(OC(F)(F)F)ccc2F)nc2ccccc21 (stereo not shown) [Example 553],< 1000
14,"CN1CCC(OC(c2cccc(C#CCCCNC(=N)N)c2)c2nc3ccccc3[nH]2)CC1 (stereo not shown) [Example 358, N-(5-{3-[(1H-benzimidazol-2-yl)(1-methylpiperidin-4-yloxy)methyl]phenyl}pent-4-ynyl)guanidine]",< 30
15,"CN1CCC(OC(c2cccc(C3=CCNCC3)c2)c2nc3ccccc3[nH]2)CC1 (stereo not shown) [Example 338, 2-{(1-methylpiperidin-4-yloxy)[3-(1,2,3,6-tetrahydro-pyridin-4-yl)phenyl]methyl}-1H-benzimidazole]",< 300
16,"CN1CCC(OC(c2cccc(-c3ccccc3Cl)c2)c2nc3ccccc3[nH]2)CC1 (stereo not shown) [Example 121, 2-[(2′-Chlorobiphenyl-3-yl)(1-methylpiperidin-4-yloxy)methyl]-1H-benzimidazole]",< 300
17,COc1ccc(F)c(C(OCC2CCN(C)C2)c2nc3ccccc3[nH]2)c1 (stereo not shown) [Example 504],< 30
18,"CN1CCC(OC(c2ccc([N+](=O)[O-])cc2)c2nc3ccccc3[nH]2)CC1 (stereo not shown) [Example 447, 2-[(1-methylpiperidin-4-yloxy)(4-nitrophenyl)methyl]-1H-benzimidazole]",< 1000
19,"CN1CCC(OC(c2cccc(C#CCN3C(=O)c4ccccc4C3=O)c2)c2nc3ccccc3[nH]2)CC1 (stereo not shown) [Example 189, 2-(3-{3-[(1H-benzimidazol-2-yl)(1-methylpiperidin-4-yloxy)methyl]phenyl}prop-2-ynyl)isoindole-1,3-dione]",< 300
20,"CCSc1cc(C(OC2CCN(C)CC2)c2nc3ccccc3[nH]2)ccc1C (stereo not shown) [Example 274, 2-[(3-ethylsulfanyl-4-methylphenyl)(1-methylpiperidin-4-yloxy)methyl]-1H-benzimidazole]",< 300
21,"CN1CCC(OC(c2cccc(-c3c[nH]nn3)c2)c2nc3ccccc3[nH]2)CC1 (stereo not shown) [Example 198, 2-{(1-methylpiperidin-4-yloxy)[3-(1H-[1,2,3]triazol-4-yl)phenyl]methyl}-1H-benzimidazole]",< 30
22,"CN1CCC(OC(c2cccc(CCc3c[nH]cn3)c2)c2nc3ccccc3[nH]2)CC1 (stereo not shown) [Example 412, 2-[{3-[2-(1H-imidazol-4-yl)ethyl]phenyl}(1-methylpiperidin-4-yloxy)methyl]-1H-benzimidazole]",< 1000
23,Cc1cc(F)c(C(OC2CCN(C)CC2)c2nc3ccccc3s2)c(F)c1 (stereo not shown) [Example 531],< 30
24,CN1CCC(OC(c2cccc(SCC3=NCCN3)c2)c2nc3cc(F)ccc3[nH]2)CC1 (stereo not shown) [Example 463],< 1000

# Results, then the molecule that gave them:
row,Ki or IC50 activity class [nM],Structure (SMILES)
1,< 1000,"CN1CCC(OC(c2cccc(OCCCCCNCC(=O)OC(C)(C)C)c2)c2nc3ccccc3s2)CC1 (stereo not shown) [Example 375, (5-{3-[benzothiazol-2-yl(1-methylpiperidin-4-yloxy)methyl]phenoxy}pentylamino)acetic acid tert-butyl ester]"
2,< 30,"CCc1cccc(C(OC2CCN(C)CC2)c2nc3ccccc3s2)c1 (stereo not shown) [Example 152, 2-[(3-ethylphenyl)(1-methylpiperidin-4-yloxy)methyl]benzothiazole]"
3,< 300,"CN1CCC(OC(c2cccc(-c3ccc(C(F)(F)F)cc3)c2)c2nc3ccccc3s2)CC1 (stereo not shown) [Example 140, 2-[(1-methylpiperidin-4-yloxy)(4′-trifluoromethylbiphenyl-3-yl)methyl]benzothiazole]"
4,< 300,"CCN1CCC(OC(c2cccc(OCCN)c2)c2nc3ccccc3s2)CC1 (stereo not shown) [Example 290, 2-{3-[benzothiazol-2-yl(1-ethyl-piperidin-4-yloxy)methyl]phenoxy}ethylamine]"
5,< 300,"CSCCOc1cccc(C(OC2CCN(C)CC2)c2nc3ccccc3s2)c1 (stereo not shown) [Example 250, 2-{(1-methylpiperidin-4-yloxy)[3-(2-methylsulfanyl-ethoxy)phenyl]methyl}benzothiazole]"
6,< 30,CN1CCC(OC(c2nc3ccccc3s2)c2cc(OC(F)(F)F)ccc2F)CC1 (stereo not shown) [Example 526]
7,< 300,"CN1CCC(OC(c2cccc(Oc3ccccc3)c2)c2nc3ccccc3s2)CC1 (stereo not shown) [Example 28, 2-[(1-methylpiperidin-4-yloxy)(3-phenoxy-phenyl)methyl]benzothiazole]"
8,< 30,"CN1CCC(OC(c2cccc(OCCF)c2)c2nc3ccccc3s2)CC1 (stereo not shown) [Example 163, 2-[[3-(2-fluoroethoxy)phenyl](1-methylpiperidin-4-yloxy)methyl]benzothiazole]"
9,< 300,"CN1CCC(OC(c2cccc(OC3CCNC3)c2)c2nc3ccccc3s2)CC1 (stereo not shown) [Example 383, 2-{(1-methylpiperidin-4-yloxy)[3-(pyrrolidin-3-yloxy)phenyl]methyl}benzothiazole]"
10,< 30,"Cc1cccc(C(OC2CCN(C)CC2)c2nc3ccccc3s2)c1 (stereo not shown) [Example 8, 2-[(1-methylpiperidin-4-yloxy)(m-tolyl)methyl]benzothiazole]"
11,< 30,CN1CCC(OC(c2cccc(N3CCC(N(C)C)C3)c2)c2nc3ccccc3s2)CC1 (stereo not shown) [Example 484]
12,< 30,"COc1cc(F)cc(C(OC2CCN(C)CC2)c2nc3ccccc3s2)c1 (stereo not shown) [Example 40, 2-[(3-fluoro-5-methoxyphenyl)(1-methylpiperidin-4-yloxy)methyl]benzothiazole]"
13,< 1000,"CN1CCC(OC(c2cccc(OCC3CCCNC3)c2)c2nc3ccccc3s2)CC1 (stereo not shown) [Example 378, 2-{(1-methylpiperidin-4-yloxy)[3-(piperidin-3-ylmethoxy)phenyl]methyl}benzothiazole]"
14,< 30,"CN1CCC(OC(c2cccc(OCc3cccc(C(F)(F)F)c3)c2)c2nc3ccccc3s2)CC1 (stereo not shown) [Example 187, 2-{(1-methylpiperidin-4-yloxy)[3-(3-trifluoromethyl-benzyloxy)phenyl]methyl}benzothiazole]"
15,< 30,"CN1CCC(OC(c2cccc(OCCCCCN)c2)c2nc3ccccc3[nH]2)CC1 (stereo not shown) [Example 400, 5-{3-[(1H-benzimidazol-2-yl)(1-methylpiperidin-4-yloxy)methyl]phenoxy}pentylamine]"
16,< 30,"CN1CCC(OC(c2cccc(CCCCCCN)c2)c2nc3ccccc3s2)CC1 (stereo not shown) [Example 325, 6-{3-[benzothiazol-2-yl(1-methylpiperidin-4-yloxy)methyl]phenyl}hexylamine]"
